Earlier results, collected in patent US20090186859A1, “DIAZENIUMDIOLATED NON-STEROIDAL ANTI-INFLAMMATORY DRUGS, COMPOSITIONS THEREOF, AND RELATED METHODS” (THE UNITED STATES OF AMERICA, AS REPRESENTED BY THE SEC., …, priority 2006, published 2009).

Experiments:
[1] = system: intestinal tumorigenesis; conditions: APC (DELTA 716) mice
[2] = long-term administration to animals
[3] = system: colon polyp formation; conditions: those at high risk, including those already treated for colorectal cancer
[4] = system: colon carcinogenesis; conditions: AOM-treated rat model
[5] = system: hormone-positive tumors (estrogen receptor (ER) or progesterone receptor (PR)-positive); conditions: women who took aspirin seven or more times a week vs women who did not take it
[6] = system: tumor; conditions: APC(Min)+ mouse model
[7] = system: colonic aberrant crypt foci; conditions: male F344 rats

Question: With `CS(=O)(=O)c1ccc(C2=C(c3ccc(F)c(F)c3)C(=O)OC2)cc1` [MF-Tricyclic] as the compound, how does the intestinal tumorigenesis [1] read?
Answer: Its intestinal tumorigenesis is “blocks intestinal tumorigenesis”.

Question: With `O=NN1CCC[C@H]1C(=O)O` [N-nitrosoproline] as the compound, how does the tumorigenicity [2] read?
Answer: Its tumorigenicity is “none of these studies showed it to be tumorigenic”.

Question: For `CC(=O)Oc1ccccc1C(=O)O` [aspirin, acetylsalicylic acid], which colon polyp formation [3] is on record?
Answer: Its colon polyp formation is “significantly reduce colon polyp formation”.

Question: And the “inhibition of colon carcinogenesis” value [4]?
Answer: The value was “effectively inhibit colon carcinogenesis”.

Question: And the “lower risk of developing hormone-positive tumors” value [5]?
Answer: The value was 26%.

Question: For `CC(C(=O)O)c1ccc(-c2ccccc2)c(F)c1` (stereo not drawn) [flurbiprofen], which anti-tumor effects [6] is on record?
Answer: Its anti-tumor effects is “demonstrated anti-tumor effects”.

Question: Which “inhibition of colon carcinogenesis” value [4] does the source give for `CC(C)Cc1ccc(C(C)C(=O)O)cc1` (stereo not drawn) [ibuprofen] here?
Answer: The value was “effectively inhibit colon carcinogenesis”.

Question: With `COc1ccc2c(c1)c(CC(=O)O)c(C)n2C(=O)c1ccc(Cl)cc1` [indomethacin] as the compound, how does the “inhibition of colon carcinogenesis” value [4] read?
Answer: Its value is “effectively inhibit colon carcinogenesis”.

Question: For `COc1ccc2cc(CCC(C)=O)ccc2c1` [nabumetone], which “formation of colonic aberrant crypt foci” value [7] is on record?
Answer: Its value is “inhibit formation of colonic aberrant crypt foci”.

Question: With `CS(=O)(=O)Nc1ccc([N+](=O)[O-])cc1Oc1ccccc1` [nemisulide] as the compound, how does the “formation of colonic aberrant crypt foci” value [7] read?
Answer: Its value is “inhibit formation of colonic aberrant crypt foci”.

Question: For `CN1C(C(=O)Nc2ccccn2)=C(O)c2ccccc2S1(=O)=O` [piroxicam], which “inhibition of colon carcinogenesis” value [4] is on record?
Answer: The value was “effectively inhibit colon carcinogenesis”.

Question: With `CC1=C(CC(=O)O)c2cc(F)ccc2/C1=C\c1ccc([S+](C)[O-])cc1` (stereo not drawn) [sulindac] as the compound, how does the “inhibition of colon carcinogenesis” value [4] read?
Answer: The value was “effectively inhibit colon carcinogenesis”.
